According to patent US20020026053A1, “Novel 3-(substituted) -2- indolinones compounds and use thereof as inhibitors of protein kinase activity” (priority 1997, published 2002):
“And” between values parts separate entries of the source, which are not always exact repeats. Equal entries are not always repeated. Where two headings read alike, the source gives them in different places.

Test system: FLK-1 receptor
Experiment: FLK-1 Assay (cellular/catalytic ELISA, VEGF-stimulated phosphotyrosine)
Type: cell-based
Set-up: concentration or dose not given beside the values
Procedure, shortened: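 Receptor phosphotyrosine ELISA: Flk-1-expressing NIH3T3 C7#3 cells, starved overnight in 0.1% FBS medium, received compound (1:200 final dilution, 0.5% DMSO) for 2 h at 37 °C, then VEGF. Anti-FLK-1-captured receptor was probed with anti-phosphotyrosine UB40 and peroxidase/ABTS read-out, relative to cells without compound.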

| Compound | Flk Kinase % Inhibition (P.110) [%] | Flk Kinase % Inhibition (P.110) (protocol P.110) |
| --- | --- | --- |
| CCOc1ccccc1C=C1C(=O)Nc2c(Br)cc(Br)c(C)c21 [10717/H02] | 4.0 |  |
| Cc1c(Br)cc(Br)c2c1C(=Cc1cccs1)C(=O)N2 [10717/H03] | 8.6 |  |
| Cc1c(Br)cc(Br)c2c1C(=Cc1cccn1C)C(=O)N2 [10717/H04] | 0.4 |  |
| COc1ccc(C=C2C(=O)Nc3c(Br)cc(Br)c(C)c32)cc1OC [10720/H04] | −5.8 |  |
| Cc1c(Br)cc(Br)c2c1C(=Cc1ccccc1O)C(=O)N2 [10720/H05] | −12.3 |  |
| Cc1c(Br)cc(Br)c2c1C(=Cc1ccccc1)C(=O)N2 [10720/H06] | 22.3 |  |
| CSc1ccc(C=C2C(=O)Nc3c(Br)cc(Br)c(C)c32)s1 [10720/H07] | −2.9 |  |
| Cc1cc(O)cc(O)c1C=C1C(=O)Nc2c(Br)cc(Br)c(C)c21 [10720/H08] | −23.7 |  |
| CCOc1cc(C=C2C(=O)Nc3c(Br)cc(Br)c(C)c32)ccc1O [10720/H09] | −4.5 |  |
| COc1ccc(O)c(C=C2C(=O)Nc3c(Br)cc(Br)c(C)c32)c1 [10720/H10] | −22.8 |  |
| Cc1c(Br)cc(Br)c2c1C(=Cc1ncc[nH]1)C(=O)N2 [10720/H11] | −8.8 |  |
| Cc1c(Br)cc(Br)c2c1C(=Cc1nc3ccccc3n1C)C(=O)N2 [10721/H02] | 5.5 |  |
| Cc1c(Br)cc(Br)c2c1C(=Cc1nn(C)cc1Cl)C(=O)N2 [10721/H03] | 7.8 |  |
| Cc1cc(C=C2C(=O)Nc3c(Br)cc(Br)c(C)c32)sc1C [10721/H04] | 0.7 |  |
| Cc1c(Br)cc(Br)c2c1C(=Cc1cc3c([nH]1)CCCC3)C(=O)N2 [10721/H05] | −8.4 |  |
| Cc1c(Br)cc(Br)c2c1C(=Cc1cc([N+](=O)[O-])cc(CCl)c1O)C(=O)N2 [10721/H06] | −7.9 |  |
| Cc1c(Br)cc(Br)c2c1C(=Cc1ccc(Cl)s1)C(=O)N2 [10721/H07] | −7.0 |  |
| Cc1cc(C)c(C=C2C(=O)Nc3c(Br)cc(Br)c(C)c32)[nH]1 [10721/H08] | −6.8 |  |
| Cc1c(Br)cc(Br)c2c1C(=Cc1ccc(O)c(C(C)(C)C)c1)C(=O)N2 [10721/H09] | 7.0 |  |
| Cc1c(Br)cc(Br)c2c1C(=Cc1cc(Br)c(O)c(C(C)(C)C)c1)C(=O)N2 [10721/H10] | 10.2 |  |
| Cc1c(Br)cc(Br)c2c1C(=Cc1cc(C(C)(C)C)c(O)c(C(C)(C)C)c1)C(=O)N2 [10721/H11] | −6.0 |  |
| Cc1c(Br)cc(Br)c2c1C(=Cc1cc([N+](=O)[O-])c(O)c(C(C)(C)C)c1)C(=O)N2 [10722/H02] | 4.2 |  |
| Cc1c(Br)cc(Br)c2c1C(=Cc1c(O)cc(O)cc1O)C(=O)N2 [10722/H03] | 2.1 |  |
| Cc1c(Br)cc(Br)c2c1C(=Cc1ccc([N+](=O)[O-])s1)C(=O)N2 [10722/H04] | 3.8 |  |

| Compound | Flk Kinase % Inhibition (P.110) [%] | Flk Kinase % Inhibition (P.110) (protocol P.110) |
| --- | --- | --- |
| Cc1c(Br)cc(Br)c2c1C(=Cc1ccc(C(=O)O)cc1)C(=O)N2 [10722/H05] | 4.3 |  |
| Cc1c(Br)cc(Br)c2c1C(=Cc1ccc(F)cc1F)C(=O)N2 [10722/H06] | 18.9 |  |
| Cc1cc(C=C2C(=O)Nc3c(Br)cc(Br)c(C)c32)cc(C)c1O [10722/H07] | 2.3 |  |
| Cc1c(Br)cc(Br)c2c1C(=Cc1cc(Cl)c(O)c(C(C)(C)C)c1)C(=O)N2 [10722/H08] | −20.3 |  |
| Cc1c(Br)cc(Br)c2c1C(=Cc1csc([N+](=O)[O-])c1)C(=O)N2 [10722/H09] | 3.3 |  |
| CCCCN(CCCC)c1ccc(C=C2C(=O)Nc3c(Br)cc(Br)c(C)c32)cc1 [10722/H10] | −14.1 |  |
| Cc1c(Br)cc(Br)c2c1C(=Cc1ccc(C(F)(F)F)cc1)C(=O)N2 [10722/H11] | −3.3 |  |
| Cc1c(Br)cc(Br)c2c1C(=Cc1ccc(O)c(O)c1O)C(=O)N2 [10723/H02] | 9.0 |  |
| COc1cccc(C=C2C(=O)Nc3c(Br)cc(Br)c(C)c32)c1O [10723/H03] | 6.1 |  |
| Cc1c(Br)cc(Br)c2c1C(=Cc1cc(O)c(O)c(Br)c1)C(=O)N2 [10723/H04] | −20.2 |  |
| CC(=O)Oc1ccc(C=C2C(=O)Nc3c(Br)cc(Br)c(C)c32)cc1OC(C)=O [10723/H05] | −2.5 |  |
| Cc1cc(C=C2C(=O)Nc3c(Br)cc(Br)c(C)c32)ccc1O [10723/H06] | 10.6 |  |
| Cc1c(Br)cc(Br)c2c1C(=Cc1ccccc1Br)C(=O)N2 [10723/H07] | 5.0 |  |
| Cc1c(Br)cc(Br)c2c1C(=Cc1ccc(O)cc1O)C(=O)N2 [10723/H08] | −4.2 |  |
| COc1ccc(C=C2C(=O)Nc3c(Br)cc(Br)c(C)c32)c(O)c1 [10723/H09] | −0.4 |  |
| Cc1c(Br)cc(Br)c2c1C(=Cc1cccc(Br)c1)C(=O)N2 [10723/H10] | −13.4 |  |
| Cc1c(Br)cc(Br)c2c1C(=Cc1cc(C(C)(C)C)cc(C(C)(C)C)c1O)C(=O)N2 [10723/H11] | −5.1 |  |
| Cc1c(Br)cc(Br)c2c1C(=Cc1ccc(N(C)C)c3ccccc13)C(=O)N2 [10724/H02] | 11.5 |  |
| Cc1c(Br)cc(Br)c2c1C(=Cc1ccc(O)c([N+](=O)[O-])c1)C(=O)N2 [10724/H03] | 1.8 |  |
| Cc1c(Br)cc(Br)c2c1C(=Cc1ccc([N+](=O)[O-])c(O)c1)C(=O)N2 [10724/H04] | −3.0 |  |
| Cc1c(Br)cc(Br)c2c1C(=Cc1cc3c4c(c1O)CCCN4CCC3)C(=O)N2 [10724/H05] | −0.4 |  |
| Cc1c(Br)cc(Br)c2c1C(=Cc1cc(C(C)C)c(O)c(C(C)C)c1)C(=O)N2 [10724/H06] | −5.1 |  |
| Cc1c(Br)cc(Br)c2c1C(=Cc1cc3ccccc3o1)C(=O)N2 [10724/H07] | 1.1 |  |
| COc1cc(O)c(C=C2C(=O)Nc3c(Br)cc(Br)c(C)c32)c(OC)c1 [10724/H08] | 13.1 |  |

| Compound | Flk Kinase % Inhibition (P.110) [%] | Flk Kinase % Inhibition (P.110) (protocol P.110) |
| --- | --- | --- |
| Cc1c(Br)cc(Br)c2c1C(=Cc1cccn1-c1ccc(Cl)cc1)C(=O)N2 [10724/H09] | 1.3 |  |
| CCc1ccc(C=C2C(=O)Nc3c(Br)cc(Br)c(C)c32)o1 [10724/H10] | 5.8 |  |
| Cc1c(Br)cc(Br)c2c1C(=Cc1sc3scc(C)c3c1C)C(=O)N2 [10724/H11] | 8.6 |  |
| Cc1c(Br)cc(Br)c2c1C(=Cc1sccc1Br)C(=O)N2 [10725/H02] | −7.6 |  |
| COc1ccc(Br)c(C=C2C(=O)Nc3c(Br)cc(Br)c(C)c32)c1O [10725/H03] | −5.8 |  |
| Cc1ccc(C=C2C(=O)Nc3c(Br)cc(Br)c(C)c32)o1 [10725/H04] | −5.1 |  |
| Cc1cc(C=C2C(=O)Nc3c(Br)cc(Br)c(C)c32)[nH]n1 [10725/H05] | 21.6 |  |
| COc1cc(C)cc(O)c1C=C1C(=O)Nc2c(Br)cc(Br)c(C)c21 [10725/H06] | 16.1 |  |
| Cc1c(Br)cc(Br)c2c1C(=Cc1ccc(N3CCN(C=O)CC3)cc1)C(=O)N2 [10725/H07] | 8.6 |  |
| Cc1c(Br)cc(Br)c2c1C(=Cc1ccc(N3CCOCC3)cc1)C(=O)N2 [10725/H08] | 17.2 |  |
| COC(=O)Cc1c(Cl)[nH]c(C=C2C(=O)Nc3c(Br)cc(Br)c(C)c32)c1C(=O)OC [10725/H09] | −6.1 |  |
| Cc1c(Br)cc(Br)c2c1C(=Cc1c(Br)cnn1-c1ccc(Cl)cc1)C(=O)N2 [10725/H10] | 7.8 |  |
| Cc1c(Br)cc(Br)c2c1C(=Cc1c[nH]cn1)C(=O)N2 [10725/H11] | −40.8 |  |
| Cc1c(Br)cc(Br)c2c1C(=Cc1ccccc1[N+](=O)[O-])C(=O)N2 [10726/H02] | −8.5 |  |
| CCOC(=O)c1[nH]c(C=C2C(=O)Nc3c(Br)cc(Br)c(C)c32)c(C(=O)OC)c1C [10726/H03] | 0.4 |  |
| Cc1cc(C=C2C(=O)Nc3c(Br)cc(Br)c(C)c32)cc(C(C)(C)C)c1O [10726/H04] | 2.5 |  |
| COc1cccc(C=C2C(=O)Nc3ccc(S(=O)(=O)N4CCOCC4)cc32)c1 [10736/F10] | 7.7 |  |
| O=C1Nc2ccc(S(=O)(=O)N3CCOCC3)cc2C1=Cc1ccccc1Cl [10736/F11] | 3.7 |  |
| O=C1Nc2ccc(CCCl)cc2C1=Cc1ccc(Cl)cc1 [10736/G02] | −7.2 |  |
| O=C1Nc2ccc(CCCl)cc2C1=Cc1ccccc1C(F)(F)F [10736/G03] | 4.5 |  |
| Cc1cccc(C=C2C(=O)Nc3ccc(CCCl)cc32)c1 [10736/G04] | 13.0 |  |
| Cc1ccc(C=C2C(=O)Nc3ccc(CCCl)cc32)cc1 [10736/G05] |  | 2.3% and 5.9% |
| O=C1Nc2ccc(CCCl)cc2C1=Cc1cccc(F)c1 [10736/G07] |  | 9.4% |
